The compounds below were run against His-tagged N-terminal ATP binding domain (amino acid residues 9-236) of HSP90α (Homo sapiens, UniProt P07900) (assay: HSP90 inhibitor binding potency: TRF competition binding assay). Conditions: Table I; read-out: Hsp90 IC50 Range.
Procedure, shortened: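 His-tagged HSP90α N-domain (residues 9-236) incubated 2 h at room temperature with biotinylated radicicol and increasing compound in 50 mM HEPES, 6 mM MgCl2, 20 mM KCl, 0.1% BSA. Bound tracer captured on streptavidin plates, detected with europium anti-His antibody by time-resolved fluorescence; IC50 derived.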

Row | Compound | IC50 [nM]
1 | Cc1nc(N)nc2c1C(=O)CC(c1ccccc1Oc1ccccc1F)C2 (stereo not shown) [Compound 138, 2-amino-7-[2-(2-fluorophenoxy)phenyl]-4-methyl-7,8-dihydroquinazolin-5(6H)-one] | < 1000
2 | Cc1nc(N)nc2c1C(=O)CC(c1ccccc1Oc1ccc(F)cc1)C2 (stereo not shown) [Compound 139, 2-amino-7-[2-(4-fluorophenoxy)phenyl]-4-methyl-7,8-dihydroquinazolin-5(6H)-one] | 1000 to 10000
3 | Cc1nc(N)nc2c1C(=O)CC(c1ccc(F)cc1Oc1ccccc1)C2 (stereo not shown) [Compound 140, 2-amino-7-(4-fluoro-2-phenoxy-phenyl)-4-methyl-7,8-dihydro-6H-quinazolin-5-one] | < 1000
4 | Cc1nc(N)nc2c1C(=O)CC(c1ccccc1Oc1ccccn1)C2 (stereo not shown) [Compound 141, 2-amino-4-methyl-7-[2-(pyridin-2-yloxy)phenyl]-7,8-dihydroquinazolin-5(6H)-one] | < 1000
5 | Cc1nc(N)nc2c1C(=O)CC(c1ccccc1Oc1cncnc1)C2 (stereo not shown) [Compound 142, 2-amino-4-methyl-7-[2-(pyrimidin-5-yloxy)phenyl]-7,8-dihydroquinazolin-5(6H)-one] | < 1000
6 | Cc1nc(N)nc2c1C(=O)CC(c1ccccc1Oc1cnccn1)C2 (stereo not shown) [Compound 143, 2-amino-4-methyl-7-[2-(pyrazin-2-yloxy)phenyl]-7,8-dihydroquinazolin-5(6H)-one] | < 1000
7 | Cc1nc(N)nc2c1C(=O)CC(c1ccccc1Oc1ncccn1)C2 (stereo not shown) [Compound 144, 2-amino-4-methyl-7-[2-(pyrimidin-2-yloxy)phenyl]-7,8-dihydroquinazolin-5(6H)-one] | 1000 to 10000
8 | Cc1nc(N)nc2c1C(=O)CC(c1ccccc1Oc1cccc(F)n1)C2 (stereo not shown) [Compound 145, 2-amino-7-{2-[(6-fluoropyridin-2-yl)oxy]phenyl}-4-methyl-7,8-dihydroquinazolin-5(6H)-one] | < 1000
9 | COc1cccc(Oc2ccccc2C2CC(=O)c3c(C)nc(N)nc3C2)n1 (stereo not shown) [Compound 146, 2-amino-7-{2-[(6-methoxypyridin-2-yl)oxy]phenyl}-4-methyl-7,8-dihydroquinazolin-5(6H)-one] | < 1000
10 | Cc1nc(N)nc2c1C(=O)CC(c1ccccc1Oc1ccnc(Cl)c1)C2 (stereo not shown) [Compound 147, 2-amino-7-{2-[(2-chloropyridin-4-yl)oxy]phenyl}-4-methyl-7,8-dihydroquinazolin-5(6H)-one] | 1000 to 10000
11 | CCOc1ccccc1C1CC(=O)c2c(C)nc(N)nc2C1 (stereo not shown) [Compound 148, 2-amino-7-(2-ethoxy-phenyl)-4-methyl-7,8-dihydro-6H-quinazolin-5-one] | < 1000
12 | Cc1nc(N)nc2c1C(=O)CC(c1ccccc1OC(C)C)C2 (stereo not shown) [Compound 149, 2-amino-7-(2-isopropoxy-phenyl)-4-methyl-7,8-dihydro-6H-quinazolin-5-one] | < 1000
13 | Cc1nc(N)nc2c1C(=O)CC(c1ccccc1OC1CCCC1)C2 (stereo not shown) [Compound 150, 2-amino-7-(2-cyclopentyloxy-phenyl)-4-methyl-7,8-dihydro-6H-quinazolin-5-one] | < 1000
14 | CCOc1cccc(-c2cccnc2F)c1C1CC(=O)c2c(C)nc(N)nc2C1 (stereo not shown) [Compound 151, 2-amino-7-[2-ethoxy-6-(2-fluoro-pyridin-3-yl)-phenyl]-4-methyl-7,8-dihydro-6H-quinazolin-5-one] | < 1000
15 | Cc1nc(N)nc2c1C(=O)CC(c1ccccc1OCCN1CCN(C)CC1)C2 (stereo not shown) [Compound 152, 2-amino-4-methyl-7-{2-[2-(4-methyl-piperazin-1-yl)-ethoxy]-phenyl}-7,8-dihydro-6H-quinazolin-5-one] | 1000 to 10000
16 | Cc1nc(N)nc2c1C(=O)CC(c1c(OCCN)cccc1-c1cccnc1F)C2 (stereo not shown) [Compound 153, 2-amino-7-[2-(2-amino-ethoxy)-6-(2-fluoro-pyridin-3-yl)-phenyl]-4-methyl-7,8-dihydro-6H-quinazolin-5-one] | < 1000
17 | Cc1nc(N)nc2c1C(=O)CC(c1c(Cl)cccc1OCCN1CCN(C)CC1)C2 (stereo not shown) [Compound 154, 2-amino-7-{2-chloro-6-[2-(4-methyl-piperazin-1-yl)-ethoxy]-phenyl}-4-methyl-7,8-dihydro-6H-quinazolin-5-one] | > 10000
18 | Cc1nc(N)nc2c1C(=O)CC(c1c(OCCN3CCCCC3)cccc1-c1cccnc1F)C2 (stereo not shown) [Compound 155, 2-amino-7-[2-(2-fluoro-pyridin-3-yl)-6-(2-piperidin-1-yl-ethoxy)-phenyl]-4-methyl-7,8-dihydro-6H-quinazolin-5-one] | < 1000
19 | Cc1nc(N)nc2c1C(=O)CC(c1c(OCCN3CCNCC3)cccc1-c1cccnc1F)C2 (stereo not shown) [Compound 156, 2-amino-7-[2-(2-fluoro-pyridin-3-yl)-6-(2-piperazin-1-yl-ethoxy)-phenyl]-4-methyl-7,8-dihydro-6H-quinazolin-5-one] | < 1000

Row | Compound | IC50 [nM]
20 | Cc1nc(N)nc2c1C(=O)CC(c1c(OCCN3CCOCC3)cccc1-c1cccnc1F)C2 (stereo not shown) [Compound 157, 2-amino-7-[2-(2-fluoro-pyridin-3-yl)-6-(2-morpholin-4-yl-ethoxy)-phenyl]-4-methyl-7,8-dihydro-6H-quinazolin-5-one] | < 1000
21 | Cc1nc(N)nc2c1C(=O)CC(c1c(OCCN3CCN(C)CC3)cccc1-c1cccnc1F)C2 (stereo not shown) [Compound 158, 2-amino-7-{2-(2-fluoro-pyridin-3-yl)-6-[2-(4-methyl-piperazin-1-yl)-ethoxy]-phenyl}-4-methyl-7,8-dihydro-6H-quinazolin-5-one] | < 1000
22 | Cc1nc(N)nc2c1C(=O)CC(c1cccc3ccccc13)C2 (stereo not shown) [Compound 159, 2-amino-4-methyl-7-(1-naphthyl)-7,8-dihydroquinazolin-5(6H)-one] | 1000 to 10000
23 | Cc1nc(N)nc2c1C(=O)CC(c1cccnc1)C2 (stereo not shown) [Compound 160, 2-amino-4-methyl-7-pyridin-3-yl-7,8-dihydroquinazolin-5(6H)-one] | > 10000
24 | Cc1nc(N)nc2c1C(=O)CC(c1cnccc1-c1ccccc1)C2 (stereo not shown) [Compound 161, 2-amino-4-methyl-7-(4-phenylpyridin-3-yl)-7,8-dihydroquinazolin-5(6H)-one] | < 1000
25 | Cc1nc(N)nc2c1C(=O)CC(c1ccccc1CCc1ccccc1)C2 (stereo not shown) [Compound 162, 2-amino-4-methyl-7-[2-(2-phenylethyl)phenyl]-7,8-dihydroquinazolin-5(6H)-one] | > 10000
26 | Cc1nc(N)nc2c1C(=O)CC(c1ccccc1N1CCCC1=O)C2 (stereo not shown) [Compound 163, 2-amino-4-methyl-7-[2-(2-oxo-pyrrolidin-1-yl)-phenyl]-7,8-dihydro-6H-quinazolin-5-one] | 1000 to 10000
27 | Cc1nc(N)nc2c1C(=O)CC(c1ccccc1Nc1ccccc1)C2 (stereo not shown) [Compound 164, 2-amino-4-methyl-7-(2-phenylamino-phenyl)-7,8-dihydro-6H-quinazolin-5-one] | < 1000
28 | COC(=O)c1ccccc1C1CC(=O)c2c(C)nc(N)nc2C1 (stereo not shown) [Compound 165, methyl 2-(2-amino-4-methyl-5-oxo-5,6,7,8-tetrahydroquinazolin-7-yl)benzoate] | < 1000
29 | Cc1nc(N)nc2c1C(=O)CC(c1cccc(C(N)=O)c1)C2 (stereo not shown) [Compound 166, 3-(2-amino-4-methyl-5-oxo-5,6,7,8-tetrahydroquinazolin-7-yl)benzamide] | > 10000
30 | Cc1nc(N)nc2c1C(=O)CC(c1ccccc1Oc1cc[nH]c(=O)c1)C2 (stereo not shown) [Compound 167, 2-amino-4-methyl-7-[2-(2-oxo-1,2-dihydro-pyridin-4-yloxy)-phenyl]-7,8-dihydro-6H-quinazolin-5-one] | 1000 to 10000
31 | Cc1nc(N)nc2c1C(=O)CC(c1c(O)cccc1Cl)C2 (stereo not shown) [Compound 168, 2-Amino-7-(2-chloro-6-hydroxy-phenyl)-4-methyl-7,8-dihydro-6H-quinazolin-5-one] | > 10000
32 | Cc1nc(N)nc2c1C(=O)CC(c1ccccc1-c1ccc[nH]c1=O)C2 (stereo not shown) [Compound 169, 2-amino-4-methyl-7-[2-(2-oxo-1,2-dihydropyridin-3-yl)phenyl]-7,8-dihydroquinazolin-5(6H)-one] | < 1000
33 | Cc1nc(N)nc2c1C(=O)CC(c1c(O)cccc1-c1cccnc1F)C2 (stereo not shown) [Compound 170, 2-amino-7-[2-(2-fluoro-pyridin-3-yl)-6-hydroxy-phenyl]-4-methyl-7,8-dihydro-6H-quinazolin-5-one] | < 1000
34 | Cc1nc(N)nc2c1C(=O)CC(c1ccccc1C1CCCCC1)C2 (stereo not shown) [Compound 171, 2-amino-7-(2-cyclohexylphenyl)-4-methyl-7,8-dihydroquinazolin-5(6H)-one] | < 1000
35 | Cc1nc(N)nc2c1C(=O)CC(c1ccc(F)cc1C1CCCCC1)C2 (stereo not shown) [Compound 172, 2-amino-7-(2-cyclohexyl-4-fluorophenyl)-4-methyl-7,8-dihydroquinazolin-5(6H)-one] | 1000 to 10000
36 | COc1cccc(C2CCCCC2)c1C1CC(=O)c2c(C)nc(N)nc2C1 (stereo not shown) [Compound 173, 2-amino-7-(2-cyclohexyl-6-methoxyphenyl)-4-methyl-7,8-dihydroquinazolin-5(6H)-one] | > 10000
37 | Cc1nc(N)nc2c1C(=O)CC(c1ccccc1-c1cccc(CN(C)C)c1)C2 (stereo not shown) [Compound 174, 2-amino-7-{3′-[(dimethylamino)methyl]-1,1′-biphenyl-2-yl}-4-methyl-7,8-dihydroquinazolin-5(6H)-one] | 1000 to 10000

Same assay, conditions: Table II; read-out: Hsp90 IC50 Range

Row | Compound | IC50 [nM]
38 | Cc1nc(N)nc2c1C(=O)CC(c1ncccc1OC(C)C)C2 (stereo not shown) [Compound 175, 2-amino-7-(3-isopropoxy-pyridin-2-yl)-4-methyl-7,8-dihydro-6H-quinazolin-5-one] | < 1000
39 | Cc1nc(N)nc2c1C(=O)CC(c1ccc(F)cc1OC(C)C)C2 (stereo not shown) [Compound 176, 2-amino-7-(4-fluoro-2-isopropoxy-phenyl)-4-methyl-7,8-dihydro-6H-quinazolin-5-one] | < 1000
40 | Cc1nc(N)nc2c1C(=O)CC(c1ncccc1OC1CCCC1)C2 (stereo not shown) [Compound 177, 2-amino-7-(3-cyclopentyloxy-pyridin-2-yl)-4-methyl-7,8-dihydro-6H-quinazolin-5-one] | < 1000

— patent US20070027150A1 (priority 2005, published 2007)
